EP0526258A2, “A87689 Compounds, their production and use as phospholipase-A2 inhibitors” (ELI LILLY AND COMPANY, priority 1991, dated 1993)

Test system: lipoidalamine-induced arthritis
Assay: Lipoidalamine-induced arthritis model
Format: in vivo
Conditions: rat, positive control, 0.1 mg/kg orally
Source text: The lipoidalamine-induced arthritis test is a model of systemic inflammation and arthritis induced by the adjuvant substance N, N-dioctadecyl-N′,N′-bis(2-hydroxyethyl)propanediamine (LA) suspended in mineral oil. The disease that results is very similar to that occurring in Freund's complete adjuvant (FCA) treated rats according to Chang [Chang, Y., Pearson, C. M., and Abe, C., "Adjuvant polyarthritis IV. Induction by a synthetic adjuvant: immunologic, histopathologic, and other studies," Arth. Rheum.23: 62-71, (1980)]. Inflammation occurs in many tissues but is most striking in the spleen and joints. Compounds are tested for their ability to modulate splenic and joint inflammation in established disease (treatment starts on day 9).
The animals (Lewis/Sprague Dawley, males, 200-220 grams) are divided into groups of 5 and housed in hanging cages with food and water ad libitum. On day 0 they are injected with 7.5 mg of LA subcutaneously at the base of the tail. On day 9 the animals are weighed and compound administration is started. The compounds are suspended, using a tissue homogenizer, in a 1% CMC solution. The screening dose is 50 mg/kg orally. Compounds are administered once daily for 5 days (days 9-13) with no dosing on day 14. On day 15 the animals are weighed again and hind paw volume measured using a water manometer. The animals are then anesthetized and bled via cardiac puncture. After the animals are euthanized, the spleen is removed and weighed and the hind feet are removed just above the ankle joint and weighed. The individual blood samples are analyzed for fibrinogen. Means and standard errors for all of these parameters are then calculated, and percent differences from the diseased (LA) control are figured. Statistical significance is determined utilizing the Dunnet T calculation on the raw data. The positive control for the LA arthritis test is dexamethasone. Dexamethasone at a dose of 0.1 mg/kg orally will inhibit paw swelling by 80-90% and spleen weight by 90-100%. […]

## C[C@@H]1C[C@H]2[C@@H]3CCC4=CC(=O)C=C[C@]4(C)[C@@]3(F)[C@@H](O)C[C@]2(C)[C@@]1(O)C(=O)CO [Dexamethasone, dexamethasone]
  inhibit paw swelling: 80-90%
  inhibit spleen weight: 90-100%
More variable
  fibrinogen inhibited: 50-70%
